Measurements: patent US20080269267A1, “KINASE INHIBITORS USEFUL FOR THE TREATMENT OF MYLEOPROLIFIC DISEASES AND OTHER PROLIFERATIVE DISEASES” (Deciphera Pharmaceuticals, LLC, priority 2007, published 2008)

Tests used:
[1] = target: B-Raf(V600E) kinase (SEQ ID NO:11) (Homo sapiens, UniProt P15056, V600E); assay: B-Raf(V600E) kinase assay (pyruvate kinase/lactate dehydrogenase coupled, MEK1 substrate); settings: 1 h preincubation at 30° C., ATP 0.2 mM; read-out: B-Raf V600E Enzyme Assay, biochemical IC50
Procedure: B-Raf(V600E) Kinase Assay
The activity of B-Raf(V600E) kinase (SEQ ID NO:11) was determined by following the formation of ADP from the reaction through coupling with the pyruvate kinase/lactate dehydrogenase system (e.g., Schindler, et al. Science (2000) 289, 1938-1942). In this assay, the oxidation of NADH (thus the decrease at A340nm) was continuously monitored spectrophotometrically. The reaction mixture (100 μl) contained B-Raf(V600E) kinase (0.34 nM nominal concentration, SEQ ID NO:11), unphosphorylated, full-length MEK1 (42 nM, SEQ ID NO:12), MgCl2 (13 mM), pyruvate kinase (3.5 units), lactate dehydrogenase (5.5 units), phosphoenolpyruvate (1 mM), and NADH (0.28 mM), in 60 mM Tris buffer, containing 0.13% octyl-glucoside and 3.5% DMSO concentration at pH 7.5. The test compounds were incubated with the reaction mixture at 30° C. for 1 h. The reaction was initiated by adding ATP (0.2 mM, final concentration). The absorption at 340 nm was continuously monitored for 3 h at 30° C. on a Polarstar Optima plate reader (BMG). The reaction rate was calculated using the 0.5 h to 1.5 h time frame. Percent inhibition was obtained by comparison of reaction rate with that of a control (i.e. with no test compound). IC50 values were calculated from a series of percent inhibition values determined at a range of inhibitor concentrations using software routines as implemented in the GraphPad Prism software package.

[2] = target: T1, Abl kinase (SEQ ID NO:1) (Homo sapiens, UniProt P00519); assay: Abl kinase assay (pyruvate kinase/lactate dehydrogenase coupled, ADP production); settings: 2 h preincubation at 30° C., ATP 500 μM; read-out: Abl Enzyme Assay, biochemical IC50
T1 construct: purchased deCode Genetics
T1 sequence (P00519 with tags, fused parts or gaps): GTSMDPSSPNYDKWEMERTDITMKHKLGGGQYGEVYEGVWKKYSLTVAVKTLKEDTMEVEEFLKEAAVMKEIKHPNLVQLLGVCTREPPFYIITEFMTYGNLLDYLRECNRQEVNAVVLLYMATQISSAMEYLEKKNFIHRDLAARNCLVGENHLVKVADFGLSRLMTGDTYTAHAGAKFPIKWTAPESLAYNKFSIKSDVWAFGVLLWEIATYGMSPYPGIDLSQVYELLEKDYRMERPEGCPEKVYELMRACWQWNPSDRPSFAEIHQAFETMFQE
Procedure: Abl Kinase (SEQ ID NO:1) Assay
Activity of Abl kinase (SEQ ID NO:1) was determined by following the production of ADP from the kinase reaction through coupling with the pyruvate kinase/lactate dehydrogenase system (e.g., Schindler, et al. Science (2000) 289, 1938-1942). In this assay, the oxidation of NADH (thus the decrease at A340nm) was continuously monitored spectrophometrically. The reaction mixture (100 μl) contained Abl kinase (1 nM. Abl from deCode Genetics), peptide substrate (EAIYAAPFAKKK. 0.2 mM), MgCl2 (10 mM), pyruvate kinase (4 units), lactate dehydrogenase (0.7 units), phosphoenol pyruvate (1 mM), and NADH (0.28 mM) in 90 mM Tris buffer containing 0.2% octyl-glucoside and 3.5% DMSO, pH 7.5. Test compounds were incubated with Abl (SEQ ID NO:1) and other reaction reagents at 30° C. for 2 h before ATP (500 μM) was added to start the reaction. The absorption at 340 nm was monitored continuously for 2 hours at 30° C. on Polarstar Optima plate reader (BMG). The reaction rate was calculated using the 1.0 to 2.0 h time frame. Percent inhibition was obtained by comparison of reaction rate with that of a control (i.e. with no test compound). IC50 values were calculated from a series of percent inhibition values determined at a range of inhibitor concentrations using software routines as implemented in the GraphPad Prism software package.

[3] = target: T2, c-Kit kinase (SEQ ID NO:9) (Homo sapiens, UniProt P10721); assay: c-Kit kinase assay (pyruvate kinase/lactate dehydrogenase coupled); settings: <2 min preincubation at 22° C., ATP 200 μM; read-out: c-Kit Enzyme Assay, biochemical IC50
T2 construct: purchased ProQinase
Procedure: C-Kit Kinase (SEQ ID NO:9) Assay
Activity of c-Kit kinase (SEQ ID NO:9) was determined by following the production of ADP from the kinase reaction through coupling with the pyruvate kinase/lactate dehydrogenase system (e.g., Schindler, et al. Science (2000) 289, 1938-1942). In this assay, the oxidation of NADH (thus the decrease at A340 nm) was continuously monitored spectrophometrically. The reaction mixture ([…]) contained c-Kit (cKIT residues T544-V976, from ProQinase, 5.4 nM), polyE4Y (1 mg/ml), MgCl2 (10 mM), pyruvate kinase (4 units), lactate dehydrogenase (0.7 units), phosphoenol pyruvate (1 mM), and NADH (0.28 mM) in 90 mM Tris buffer containing 0.2% octyl-glucoside and 1% DMSO, pH 7.5. Test compounds were incubated with […] (SEQ ID NO:9) and other reaction reagents at 22° C. for <2 min before ATP (200 μM) was added to start the reaction. The absorption at 340 nm was monitored continuously for 0.5 hours at 30° C. on Polarstar Optima plate reader (BMG). The reaction rate was calculated using the 0 to 0.5 h time frame. Percent inhibition was obtained by comparison of reaction rate with that of a control (i.e. with no test compound). IC50 values were calculated from a series of percent inhibition values determined at a range of inhibitor concentrations using software routines as implemented in the GraphPad Prism software package.

T2 sequence (P10721 with tags, fused parts or gaps): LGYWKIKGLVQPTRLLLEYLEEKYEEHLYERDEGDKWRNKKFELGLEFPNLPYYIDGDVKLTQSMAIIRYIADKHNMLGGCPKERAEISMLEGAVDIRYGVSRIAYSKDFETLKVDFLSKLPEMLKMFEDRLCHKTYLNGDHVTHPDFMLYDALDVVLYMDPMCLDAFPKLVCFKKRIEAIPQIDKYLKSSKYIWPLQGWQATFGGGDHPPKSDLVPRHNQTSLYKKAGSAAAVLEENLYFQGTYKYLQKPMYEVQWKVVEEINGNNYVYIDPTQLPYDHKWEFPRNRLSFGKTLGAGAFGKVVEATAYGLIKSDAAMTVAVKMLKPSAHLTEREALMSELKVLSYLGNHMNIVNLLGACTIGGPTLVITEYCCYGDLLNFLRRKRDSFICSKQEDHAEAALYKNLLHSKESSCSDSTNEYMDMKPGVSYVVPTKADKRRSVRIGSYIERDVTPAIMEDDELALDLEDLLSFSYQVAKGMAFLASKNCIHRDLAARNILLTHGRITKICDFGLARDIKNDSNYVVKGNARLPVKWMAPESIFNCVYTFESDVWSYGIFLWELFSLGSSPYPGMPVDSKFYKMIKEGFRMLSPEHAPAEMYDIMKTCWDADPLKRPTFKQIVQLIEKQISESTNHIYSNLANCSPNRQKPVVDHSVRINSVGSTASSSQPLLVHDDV
Chain of B-Raf(V600E) kinase (SEQ ID NO:11) (P15056 with tags, fused parts or gaps V600E): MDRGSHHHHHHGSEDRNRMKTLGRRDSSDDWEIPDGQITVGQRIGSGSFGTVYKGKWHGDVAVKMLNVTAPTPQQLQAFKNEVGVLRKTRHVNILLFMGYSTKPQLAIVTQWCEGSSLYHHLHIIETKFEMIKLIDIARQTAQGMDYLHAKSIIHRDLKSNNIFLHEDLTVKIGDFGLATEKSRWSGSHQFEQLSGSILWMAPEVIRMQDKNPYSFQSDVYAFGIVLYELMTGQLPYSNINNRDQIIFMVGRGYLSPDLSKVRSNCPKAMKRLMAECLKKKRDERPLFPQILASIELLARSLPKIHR

Row | IC50 [1] [nM] | IC50 [2] [nM] | IC50 [3] [nM] | SMILES
1 | < 100 | < 100 | < 100 | CC(C)c1cc(NC(=O)Nc2ccc(Oc3ccnc(-c4cnn(C)c4)c3)cc2F)n(-c2cccc(C#N)c2)n1 [Example 2, 1-(1-(3-cyanophenyl)-3-isopropyl-1H-pyrazol-5-yl)-3-(2-fluoro-4-(2-(1-methyl-1H-pyrazol-4-yl)pyridin-4-yloxy)phenyl)urea]
2 | < 10000 | < 100 | < 100 | CCc1cc(NC(=O)Nc2ccc(Oc3ccnc(-c4cnn(C(C)C)c4)c3)cc2F)n(-c2cccc(C#N)c2)n1 [Example 17, 1-(1-(3-cyanophenyl)-3-ethyl-1H-pyrazol-5-yl)-3-(2-fluoro-4-(2-(1-isopropyl-1H-pyrazol-4-yl)pyridin-4-yloxy)phenyl)urea]
